How the values were obtained:
[1] = target: recombinant human Bcl-2-G101V protein (Homo sapiens (Human), UniProt P10415, G101V); assay: Bcl-2-G101V TR-FRET Assay; assay type: binding; conditions: Bcl-2 G101V mutant, TR-FRET; read-out: Biochemical assay (IC50, nM) Bcl-2 G101V
Method in brief: (§1)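 Displacement of ligand from recombinant human Bcl-2-G101V measured by TR-FRET (ex337 nm, em490/520 nm), inhibition derived from the 490/520 ratio across compound titrations. IC50 from four-parameter logistic fit.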

[2] = tested on: recombinant human Bcl-2-G101V protein; assay: Bcl-2-G101V TR-FRET Assay; assay type: binding; conditions: ratio of biochemical IC50 Bcl-2 G101V / Bcl-2 WT
Method in brief: as §1

[3] = tested on: BCL-2 G101V knock-in cell line H96 (derive from RS4;11); assay: Bcl 2-G101V Knock-In RS4;11 Cell Proliferation Assay; assay type: cell-based; conditions: Homo sapiens, RS4;11 Bcl-2 G101V knock-in clone H96, 48 hrs, CellTiter-GLO, read-out: Cellular proliferation assay (IC50, nM) RS4
Method in brief: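 H96, a CRISPR-generated RS4;11 clone carrying BCL2-G101V knock-in (WES/RNA-seq validated), seeded 50,000 per well and exposed 48 h at 37 °C to 10-point dilutions topping at 1 or 10 μM. Viability by CellTiter-Glo luminescence; mean IC50.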

[4] = target: Recombinant human Bcl-2 protein (Homo sapiens (Human), UniProt P10415); assay: Bcl-2 TR-FRET Assay; assay type: binding; conditions: Bcl-2 wild type, TR-FRET; read-out: Biochemical assay (IC50, nM) Bcl-2 WT
Method in brief: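 Compounds were pre-incubated with 0.05 nM recombinant Bcl-2 for 0.5 h at room temperature in potassium phosphate buffer, pH 7.5. FITC-Bak peptide (0.5 nM) and Tb-cryptate antibody were then added for 1 h. Percent inhibition from TR-FRET signals gave IC50 values.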

[5] = tested on: RS4;11 (BCL-2 dependent acute lymphoblastic leukemia cell line); assay: RS4;11 Cell Proliferation Assay; assay type: cell-based; conditions: Homo sapiens, RS4-11, RS4;11 cells, read-out: Cellular proliferation assay (IC50, nM) RS4
Method in brief: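 RS4;11 cells, 50,000 per well in RPMI-1640 with 10% FBS, treated 48 h at 37 °C with a 10-point dilution series topping at 1 μM. Viability read by CellTiter-Glo ATP luminescence; mean IC50 reported.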

| Compound | IC50 [1] [nM] | Ratio of Bcl-2 G101V/WT [2] | IC50 [3] [nM] | IC50 [4] [nM] | IC50 [5] [nM] |
| --- | --- | --- | --- | --- | --- |
| COc1ccc(OC2CCN(C3CC4(CCN(c5ccc(C(=O)NS(=O)(=O)c6ccc(NC[C@H]7CC[C@](C)(O)CC7)c([N+](=O)[O-])c6)c(Oc6cnc7[nH]ccc7c6)c5)CC4)C3)C(c3ccccc3C(C)C)C2)cc1 (stereo partly drawn) [Example 138, 2-((1H-pyrrolo[2,3-b]pyridin-5-yl)oxy)-N-((4-((((1r,4r)-4-hydroxy-4-methylcyclohexyl)methyl)amino)-3-nitrophenyl)sulfonyl)-4-(2-(2-(2-isopropylphenyl)-4-(4-methoxyphenoxy)piperidin-1-yl)-7-azaspiro[3.5]nonan-7-yl) benzamide] | 1.5 | 4.1 | 3 | 0.36 | 0.44 |
| COc1ccc(CN2CCN(C3CC4(C3)CN(c3ccc(C(=O)NS(=O)(=O)c5ccc(NC[C@H]6CC[C@](C)(O)CC6)c([N+](=O)[O-])c5)c(Oc5cnc6[nH]cc(F)c6c5)c3)C4)[C@@H](c3ccccc3C(C)C)C2)cc1OC [Example 141b, 4-(6-((S)-4-(3,4-dimethoxybenzyl)-2-(2-isopropylphenyl)piperazin-1-yl)-2-azaspiro[3.3]heptan-2-yl)-2-((3-fluoro-1H-pyrrolo[2,3-b]pyridin-5-yl)oxy)-N-((4-((((1r,4r)-4-hydroxy-4-methylcyclohexyl)methyl)amino)-3-nitrophenyl)sulfonyl)benzamide] | 2.3 | 40 | 4.09 | 0.059 | 0.659 |
| C#Cc1ccc(CN2CCN(C3CC4(CCN(c5ccc(C(=O)NS(=O)(=O)c6ccc(NC[C@H]7CC[C@](C)(O)CC7)c([N+](=O)[O-])c6)c(Oc6cnc7[nH]ccc7c6)c5)CC4)C3)C(c3ccccc3C(C)C)C2)cc1 (stereo partly drawn) [Example 142, 2-((1H-pyrrolo[2,3-b]pyridin-5-yl)oxy)-4-(2-(4-(4-ethynylbenzyl)-2-(2-isopropylphenyl)piperazin-1-yl)-7-azaspiro[3.5]nonan-7-yl)-N-((4-((((1r,4r)-4-hydroxy-4-methylcyclohexyl)methyl)amino)-3-nitrophenyl)sulfonyl)benzamide] | 3 | 5.3 | 6.22 | 0.56 | 0.795 |
| COc1ccc(CN2CCN(C3CC4(CCN(c5ccc(C(=O)NS(=O)(=O)c6ccc(NC[C@H]7CC[C@](C)(O)CC7)c([N+](=O)[O-])c6)c(Oc6cnc7[nH]ccc7c6)c5)CC4)C3)C(c3ccccc3C(C)C)C2)cc1Br (stereo partly drawn) [Example 143, 2-((1H-pyrrolo[2,3-b]pyridin-5-yl)oxy)-4-(2-(4-(3-bromo-4-methoxybenzyl)-2-(2-isopropylphenyl)piperazin-1-yl)-7-azaspiro[3.5]nonan-7-yl)-N-((4-((((1r,4r)-4-hydroxy-4-methylcyclohexyl)methyl)amino)-3-nitrophenyl)sulfonyl)benzamide] | 2.6 | 5.5 | 5.15 | 0.48 | 0.674 |
| COc1cc(CN2CCN(C3CC4(CCN(c5ccc(C(=O)NS(=O)(=O)c6ccc(NC[C@H]7CC[C@](C)(O)CC7)c([N+](=O)[O-])c6)c(Oc6cnc7[nH]ccc7c6)c5)CC4)C3)C(c3ccccc3C(C)C)C2)cc(Cl)c1OC (stereo partly drawn) [Example 148, 2-((1H-pyrrolo[2,3-b]pyridin-5-yl)oxy)-4-(2-(4-(3-chloro-4,5-dimethoxybenzyl)-2-(2-isopropylphenyl)piperazin-1-yl)-7-azaspiro[3.5]nonan-7-yl)-N-((4-((((1r,4r)-4-hydroxy-4-methylcyclohexyl)methyl)amino)-3-nitrophenyl)sulfonyl)benzamide] | 2 | 3.6 | 2.81 | 0.56 | 0.46 |
| CC(C)c1ccccc1[C@@H]1CN(Cc2cccc3c2OCCO3)CCN1C1CC2(C1)CN(c1ccc(C(=O)NS(=O)(=O)c3ccc(NC[C@H]4CC[C@](C)(O)CC4)c([N+](=O)[O-])c3)c(Oc3cnc4[nH]ccc4c3)c1)C2 [Example 149a, 2-((1H-pyrrolo[2,3-b]pyridin-5-yl)oxy)-4-(6-((R)-4-((2,3-dihydrobenzo[b][1,4]dioxin-5-yl)methyl)-2-(2-isopropylphenyl)piperazin-1-yl)-2-azaspiro[3.3]heptan-2-yl)-N-((4-((((1r,4r)-4-hydroxy-4-methylcyclohexyl)methyl)amino)-3-nitrophenyl)sulfonyl)benzamide] | 0.27 | 2.6 | 0.67 | 0.11 | 0.17 |
| CC(C)c1ccccc1[C@H]1CN(Cc2cccc3c2OCCO3)CCN1C1CC2(C1)CN(c1ccc(C(=O)NS(=O)(=O)c3ccc(NC[C@H]4CC[C@](C)(O)CC4)c([N+](=O)[O-])c3)c(Oc3cnc4[nH]ccc4c3)c1)C2 [Example 149b, 2-((1H-pyrrolo[2,3-b]pyridin-5-yl)oxy)-4-(6-((S)-4-((2,3-dihydrobenzo[b][1,4]dioxin-5-yl)methyl)-2-(2-isopropylphenyl)piperazin-1-yl)-2-azaspiro[3.3]heptan-2-yl)-N-((4-((((1r,4r)-4-hydroxy-4-methylcyclohexyl)methyl)amino)-3-nitrophenyl)sulfonyl)benzamide] | 8.4 | 12 | 20.4 | 0.7 | 5.8 |
| C#Cc1cc(CN2CCN(C3CC4(CCN(c5ccc(C(=O)NS(=O)(=O)c6ccc(NC[C@H]7CC[C@](C)(O)CC7)c([N+](=O)[O-])c6)c(Oc6cnc7[nH]ccc7c6)c5)CC4)C3)C(c3ccccc3C(C)C)C2)ccc1OC (stereo partly drawn) [Example 151, 2-((1H-pyrrolo[2,3-b]pyridin-5-yl)oxy)-4-(2-(4-(3-ethynyl-4-methoxybenzyl)-2-(2-isopropylphenyl)piperazin-1-yl)-7-azaspiro[3.5]nonan-7-yl)-N-((4-((((1r,4r)-4-hydroxy-4-methylcyclohexyl)methyl)amino)-3-nitrophenyl)sulfonyl)benzamide] | 2.1 | 4.9 | 3.86 | 0.43 | 0.53 |
| COc1cc(CN2CCN(C3CC4(CCN(c5ccc(C(=O)NS(=O)(=O)c6ccc(NC[C@H]7CC[C@](C)(O)CC7)c([N+](=O)[O-])c6)c(Oc6cnc7[nH]ccc7c6)c5)CC4)C3)C(c3ccccc3C(C)C)C2)cc(F)c1OC (stereo partly drawn) [Example 152, 2-((1H-pyrrolo[2,3-b]pyridin-5-yl)oxy)-4-(2-(4-(3-fluoro-4,5-dimethoxybenzyl)-2-(2-isopropylphenyl)piperazin-1-yl)-7-azaspiro[3.5]nonan-7-yl)-N-((4-((((1r,4r)-4-hydroxy-4-methylcyclohexyl)methyl)amino)-3-nitrophenyl)sulfonyl)benzamide] | 0.89 | 3.5 | 1.31 | 0.25 | 0.35 |
| CCc1ccc(CN2CCN(C3CC4(CCN(c5ccc(C(=O)NS(=O)(=O)c6ccc(NC[C@H]7CC[C@](C)(O)CC7)c([N+](=O)[O-])c6)c(Oc6cnc7[nH]ccc7c6)c5)CC4)C3)C(c3ccccc3C(C)C)C2)cc1 (stereo partly drawn) [Example 153] | 2.7 | 4.4 | 6.48 | 0.6 | 0.75 |
| COc1cnc(CN2CCN(C3CC4(CCN(c5ccc(C(=O)NS(=O)(=O)c6ccc(NC[C@H]7CC[C@](C)(O)CC7)c([N+](=O)[O-])c6)c(Oc6cnc7[nH]ccc7c6)c5)CC4)C3)C(c3ccccc3C(C)C)C2)cn1 (stereo partly drawn) [Example 154, 2-((1H-pyrrolo[2,3-b]pyridin-5-yl)oxy)-N-((4-((((1r,4r)-4-hydroxy-4-methylcyclohexyl)methyl)amino)-3-nitrophenyl)sulfonyl)-4-(2-(2-(2-isopropylphenyl)-4-((5-methoxypyrazin-2-yl)methyl)piperazin-1-yl)-7-azaspiro[3.5]nonan-7-yl)benzamide] | 0.3 | 6 | 2.22 | 0.05 | 0.38 |
| COc1cc(CN2CCN(C3CC4(CCN(c5ccc(C(=O)NS(=O)(=O)c6ccc(NC[C@H]7CC[C@](C)(O)CC7)c([N+](=O)[O-])c6)c(Oc6cnc7[nH]ccc7c6)c5)CC4)C3)C(c3ccccc3C(C)C)C2)ccc1C1CC1 (stereo partly drawn) [Example 156, 2-((1H-pyrrolo[2,3-b]pyridin-5-yl)oxy)-4-(2-(4-(4-cyclopropyl-3-methoxybenzyl)-2-(2-isopropylphenyl)piperazin-1-yl)-7-azaspiro[3.5]nonan-7-yl)-N-((4-((((1r,4r)-4-hydroxy-4-methylcyclohexyl)methyl)amino)-3-nitrophenyl)sulfonyl)benzamide] | 3.6 | 4.9 | 1.42 | 0.73 | 0.375 |

Reference: patent publication US20240376097A1, “BCL-2 Inhibitor” (BeiGene Ltd., priority 2020, published 2024)
